{"source": "patent US20220370395A1", "about": "“ENHANCER OF PHOTODYNAMIC EFFECT IN ALA-PDT OR ALA-PDD” (SBI PHARMACEUTICALS CO., LTD., priority 2017, published 2022)", "key": {"[1]": {"conditions": "cited from earlier work"}, "[2]": {"system": "cancer cell strains DU145, HT29, HCC2998, MKN7, MDA-MB-231, MCF-7", "experiment": "Intracellular and extracellular PpIX amount in cancer cell strains, ALA plus serial dilutions of inhibitor (Examples 1, 3, 4, 5)", "type": "cell-based", "conditions": "in combination with 1 mM ALA; for extracellular PpIX amount (corrected with amount of protein) / intracellular PpIX amount (corrected with amount of protein): cultured 4 hours, compared to ALA alone, six cancer cell strains", "from_the_text": "Six types of cells strains were employed as cancer cell strains: […], large intestine cancer cell strains (HT29, HCC2998), stomach cancer cell strain (MKN7), and mammary gland cancer cell strains (MDA-MB-231, MCF-7). For the medium, RPMI 1640 (from Wako) supplemented with 5% inactivated fetal bovine serum (FBS, from Biowest) was employed (hereinafter referred to as RPMI medium). Two types of inhibitors are known to exist for dynamin: one is an inhibitor that targets the GAS domain, whereas the other is an inhibitor that targets the PH domain. Iminodyn22 (from abcam) was used as the inhibitor that targets the GAS domain. Further, OcTMAB (from abcam) was used as the inhibitor that targets the PH domain.\nTo 1 mg of OcTMAB was added 255 μL of dimethyl sulfoxide (DMSO, from Wako), and this was mixed to make an OcTMAB 10 mM stock solution. Further, to 1 mg of Iminodyn22 was added 208 μL of DMSO, and this was mixed to make an Iminodyn22 10 mM stock solution. The OcTMAB 10 mM stock solution was diluted with the RPMI medium to adjust to 16 μM. The Iminodyn22 10 mM stock solution was diluted with the RPMI medium to adjust to 40 μM. The OcTMAB and Iminodyn22 prepared were each serially diluted with the RPMI medium to create six serial dilutions. Each of these dynamin inhibitor-containing medium was mixed with an equal amount of the RPMI medium comprising 2 mM aminolevulinic acid hydrochloride salt (ALA) to prepare ALA/OcTMAB and ALA/Iminodyn22-containing mediums.\nEach cancer cell strain was seeded in a 96-well plate (black with transparent bottom; from Corning) at a density of 1.25×10^4 cells/well (only MDA-MB-231 was seeded at 2.0×10^4 cells/well), and this was cultured overnight at 37° C. After the overnight culture, the culture supernatant was removed, 200 μL each of ALA/OcTMAB-containing medium or ALA/Iminodyn22-containing medium described above were added to each well, and this was cultured for 4 hours under a 37° C. condition. After 4 hours, 100 μL of each culture supernatant were transferred to another 96-well plate, and this was set as the extracellular PpIX measuring plate. The remaining culture supernatant was removed, each cell strain was washed once with phosphate buffered saline (PBS, from Wako), and then 100 μL per well of 1% dodecyl sodium sulfate (SDS, from Wako) aqueous solution was added to dissolve the cells, and this was set as the intracellular PpIX measuring plate. Protoporphyrin IX standard sample (PpIX, from Funakoshi Co., Ltd.) was dissolved in DMSO solution to create 1 mM PpIX stock solution. The 1 mM PpIX stock solution was diluted with each of 1% SDS solution and RPMI medium, and PpIX standard solutions with final concentrations of 0-1000 nM were prepared. The PpIX standard solutions prepared with 1% SDS were added to unused wells in the intracellular accumulation PpIX measuring plate, and the standard solutions prepared with the RPMI medium were added to unused portions of the extracellular export PpIX measuring plate at 100 μL each. The fluorescence intensity of the intracellular PpIX measuring plate and the extracellular PpIX measuring plate was measured with a microplate reader (infinite M200PRO; from TECAN) under the condition of excitation light at 405 nm and measurement wavelength at 635 nm. After measurement, a standard curve was created from the fluorescence intensity of the PpIX standard solutions, and the amount of PpIX in each well was calculated from the standard curve.\nIn order to correct the amount of PpIX measured by the above method with the amount of protein, the amount of protein contained in each sample of the intracellular PpIX measuring plate was measured. Pierce™ BCA Protein Assay Kit (from Thermo Fisher) was used for measuring the amount of protein. BCA reagent A and BCA reagent B were mixed at a proportion of 50:1 to prepare the BCA reaction solution. […]"}, "[3]": {"system": "cancer cell strains DU145, HT29, HCC2998, MKN7, MDA-MB-231, MCF-7", "experiment": "Intracellular and extracellular PpIX amount, combination use of OcTMAB and FTC with ALA (Example 2)", "type": "cell-based", "conditions": "final concentration ALA 1 mM, OcTMAB 8 μM, FTC 10 μM, 4 hours; compared between combination use groups", "method": "Six types of cells strains were employed as cancer cell strains: […], large intestine cancer cell strains (HT29, HCC2998), stomach cancer cell strain (MKN7), and mammary gland cancer cell strains (MDA-MB-231, MCF-7). Fumitremorgin C (FTC, from sigma) was dissolved in DMSO to create a 2 mM stock solution, and then adjusted to 40 μM with the RPMI medium. For OcTMAB, the 10 mM stock solution was adjusted with the RPMI medium to 32 μM. The 40 μM FTC-containing RPMI medium was added to an equal amount of 32 μM OcTMAB-containing medium to prepare a 16 μM OcTMAB/20 μM FTC-containing medium. Note that FTC is an inhibitor of ABCG2 (a transporter that extracellularly exports PpIX), and is known as a compound that has the effect of inhibiting extracellular export of PpIX.\nEach cancer cell strain was seeded in a 96-well plate (black with transparent bottom) at a density of 1.25×10^4 cells/well (only MDA-MB-231 was seeded at 2.0×10^4 cells/well), and this was cultured overnight at 37/C. After the overnight culture, the culture supernatant was removed, 100 μL each of 2 mM ALA-containing RPMI medium was added to each well. […]\nIn order to correct the above PpIX amount measurement result with the amount of protein, the amount of protein in each sample for measuring the intracellular PpIX amount was measured. […]"}}}
{"molecule": "NCC(=O)CCC(=O)O", "note": "[ALA, 5-aminolevulinic acid]", "values": [{"measurement": "time until metabolized in vivo and excreted", "setting": "[1]", "result": "≤ 48", "unit": "h"}]}
{"molecule": "O=c1[nH]c2ccccc2n1C1CCN(Cc2ccc(-c3nc4cc5nc[nH]c5cc4nc3-c3ccccc3)cc2)CC1", "note": "[Akt inhibitor VIII]", "values": [{"measurement": "inhibitor concentration at which the decrease of extracellular PpIX amount peaks", "setting": "[2]; 4 hours", "result": "~5", "unit": "µM"}, {"measurement": "inhibitor concentration at which the increase in the amount of PpIX accumulated peaks", "setting": "[2]; 4 hours", "result": "~5", "unit": "µM"}, {"measurement": "extracellular PpIX amount (corrected with amount of protein)", "setting": "[2]", "result": "decrease of extracellular PpIX amount"}, {"measurement": "intracellular PpIX amount (corrected with amount of protein)", "setting": "[2]", "result": "increase in the amount of PpIX accumulated"}]}
{"molecule": "CCCCCCCCCCCCCC[N+](C)(C)C.[Br-]", "note": "[MiTMAB]", "values": [{"measurement": "extracellular PpIX amount (corrected with amount of protein)", "setting": "[2]", "result": "decrease of extracellular PpIX amount dependent on the concentration of MiTMAB"}, {"measurement": "intracellular PpIX amount (corrected with amount of protein)", "setting": "[2]", "result": "increase of intracellular PpIX amount dependent on the concentration of MiTMAB"}]}
{"molecule": "CCCCCCCCCCCCCCCCCC[N+](C)(C)C.[Br-]", "note": "[OcTMAB]", "values": [{"measurement": "extracellular PpIX amount (corrected with amount of protein)", "setting": "[2]", "result": "decrease of extracellular PpIX amount dependent on the concentration of OcTMAB"}, {"measurement": "intracellular PpIX amount (corrected with amount of protein)", "setting": "[2]", "result": "increase of intracellular PpIX amount dependent on the concentration of OcTMAB"}, {"measurement": "extracellular PpIX amount (PpIX extracellular export)", "setting": "[3]", "result": "effect similar to ETC for suppressing PpIX extracellular export"}, {"measurement": "intracellular PpIX amount", "setting": "[3]", "result": "increased intracellular PpIX similar to or more than the ALA and ETC combination use group"}]}
{"molecule": "CCCCCCCCCCCCCCCCCC[N+](C)(C)CCN1C(=O)[C@@H]2[C@H](C1=O)[C@H]1CC[C@@H]2O1.[Br-]", "note": "[RTIL13]", "values": [{"measurement": "inhibitor concentration at which the increase in the amount of PpIX accumulated peaks", "setting": "[2]; 4 hours", "result": "~10", "unit": "µM"}, {"measurement": "extracellular PpIX amount (corrected with amount of protein)", "setting": "[2]", "result": "decrease of extracellular PpIX amount dependent on the concentration of RTIL13"}, {"measurement": "intracellular PpIX amount (corrected with amount of protein)", "setting": "[2]", "result": "increase in the amount of PpIX accumulated"}]}
{"molecule": "N=c1oc2c(O)c(O)ccc2cc1C(=O)NCCCNC(=O)c1cc2ccc(O)c(O)c2oc1=N", "note": "[iminodyn22]", "values": [{"measurement": "extracellular PpIX amount (corrected with amount of protein)", "setting": "[2]", "result": "no change in the intracellular and extracellular PpIX amounts"}, {"measurement": "intracellular PpIX amount (corrected with amount of protein)", "setting": "[2]", "result": "no change in the intracellular and extracellular PpIX amounts"}]}
